Each block holds one compound with its values, some of them ahead of it. Activity calls are given as the source filed them. The rule behind the calls is not given here.
Columns and labels:
CDK9/cyclin T1 = CDK9/cyclin T1 (Homo sapiens, UniProt P50750); experiment: Inhibition of CDK9/cyclin T1 (unknown origin) pre-incubated for 20 min followed by 32P-ATP addition and measured after 2 hrs; type: protein-complex assay
DU-145 [1] = experiment: Antiproliferative activity against human DU-145 cells incubated for 72 hrs by MTT assay; type: functional, cell-based; details: DU-145, 72 h
[2] = Microsomal stability in human liver microsomes assessed as residual activity at 5 uM incubated for 15 min in presence of NADPH generating system by HPLC-MS analysis; type: ADME, Microsome; details: read-out: Stability
[3] = Stability of the compound in stimulated gastric fluid pH 1.2 at 5 uM incubated for 30 mins by HPLC-MS analysis; type: physicochemical; details: simulated gastric fluid, read-out: Stability
[4] = Stability in mouse serum at 5 uM measured after 360 mins by HPLC analysis; type: ADME, cell-free; details: read-out: Stability
[5] = Apparent permeability of compound across apical to basolateral side in human Caco-2 cells at 10 uM incubated for 2 hrs; type: ADME, cell-based
[6] = Drug uptake in human DU-145 cells assessed as increase in green fluorescence in cytoplasm at 1 uM incubated for 2 hrs by live-cell confocal laser scanning microscopy based analysis; type: ADME; details: du-145, 2 h
[7] = Drug uptake in human DU-145 cells assessed as increase in green fluorescence in nucleus at 1 uM incubated for 2 hrs by live-cell confocal laser scanning microscopy based analysis; type: ADME; details: du-145, 2 h
LNCaP = experiment: Antiproliferative activity against human LNCaP cells incubated for 72 hrs by MTT assay; type: functional, cell-based
CWR22R = experiment: Antiproliferative activity against human 22Rv1 cells incubated for 72 hrs by MTT assay; type: functional, cell-based; details: 22Rv1, 72 h
PC-3 = experiment: Antiproliferative activity against human PC-3 cells incubated for 72 hrs by MTT assay; type: functional, cell-based; details: PC-3, 72 h
VCaP = experiment: Antiproliferative activity against human VCaP cells incubated for 72 hrs by MTT assay; type: functional, cell-based
T47D = experiment: Antiproliferative activity against human T47D cells incubated for 72 hrs by MTT assay; type: functional, cell-based
MCF7 = experiment: Antiproliferative activity against human MCF7 cells incubated for 72 hrs by MTT assay; type: functional, cell-based; details: MCF7, 72 h
[8] = Half life in BALB/c mouse at 10 mg/kg, ip measured upto 24 hrs by LC-MS/MS analysis; type: ADME, organism-based; details: in vivo
[9] = Cmax in BALB/c mouse at 10 mg/kg, ip measured upto 24 hrs by LC-MS/MS analysis; type: ADME, organism-based; details: in vivo
[10] = Tmax in BALB/c mouse at 10 mg/kg, ip measured upto 24 hrs by LC-MS/MS analysis; type: ADME, organism-based; details: in vivo
[11] = Half life in BALB/c mouse at 2 mg/kg, iv measured upto 24 hrs by LC-MS/MS analysis; type: ADME, organism-based; details: in vivo
[12] = Half life in BALB/c mouse at 10 mg/kg, po measured upto 24 hrs by LC-MS/MS analysis; type: ADME, organism-based; details: in vivo
[13] = Cmax in BALB/c mouse at 10 mg/kg, po measured upto 24 hrs by LC-MS/MS analysis; type: ADME, organism-based; details: in vivo
[14] = Tmax in BALB/c mouse at 10 mg/kg, po measured upto 24 hrs by LC-MS/MS analysis; type: ADME, organism-based; details: in vivo
DU-145 [15] = experiment: Antitumor activity against human DU-145 cells xenografted in BALB/c mouse model assessed as reduction in tumor volume at 5 mg/kg, ip measured every 12 hrs for 16 days; type: functional, organism-based; details: time 16.0 day
DU-145 [16] = experiment: Antitumor activity against human DU-145 cells xenografted in BALB/c mouse model assessed as reduction in tumor volume at 10 mg/kg, ip measured every 12 hrs for 16 days; type: functional, organism-based; details: time 16.0 day
[17] = Toxicity in BALB/c mouse xenografted with human DU-145 cells assessed as effect on body weight at 5 mg/kg, ip measured every 12 hrs for 16 days; type: organism-based; details: in vivo, 384 h, time 16 day
[18] = Toxicity in BALB/c mouse xenografted with human DU-145 cells assessed as effect on body weight at 10 mg/kg, ip measured every 12 hrs for 16 days; type: organism-based; details: in vivo, 384 h, time 16 day
[19] = Toxicity in BALB/c mouse assessed as change in alanine transferase (ALT) level in blood at 5 mg/kg, ip measured every 12 hrs for 16 days by biochemical automatic analyzer; type: organism-based; details: in vivo, 384 h, time 16 day
[20] = Toxicity in BALB/c mouse assessed as change in aspartate transaminase (AST) level in blood at 5 mg/kg, ip measure every 12 hrs for 16 days by biochemical automatic analyzer; type: organism-based; details: in vivo, 384 h, time 16 day
[21] = Toxicity in BALB/c mouse assessed as change in blood urea nitrogen level in blood at 5 mg/kg, ip measured every 12 hrs for 16 days by biochemical automatic analyzer; type: organism-based; details: in vivo, 384 h, time 16 day
[22] = Toxicity in BALB/c mouse assessed as change in creatinine level in blood at 5 mg/kg, ip measured every 12 hrs for 16 days by biochemical automatic analyzer; type: organism-based; details: in vivo, 384 h, time 16 day
[23] = Toxicity in BALB/c mouse assessed as change in alanine transferase (ALT) level in blood at 10 mg/kg, ip measured every 12 hrs for 16 days by biochemical automatic analyzer; type: organism-based; details: in vivo, 384 h, time 16 day
[24] = Toxicity in BALB/c mouse assessed as change in aspartate transaminase (AST) level in blood at 10 mg/kg, ip measure every 12 hrs for 16 days by biochemical automatic analyzer; type: organism-based; details: in vivo, 384 h, time 16 day
[25] = Toxicity in BALB/c mouse assessed as change in blood urea nitrogen level in blood at 10 mg/kg, ip measured every 12 hrs for 16 days by biochemical automatic analyzer; type: organism-based; details: in vivo, 384 h, time 16 day
[26] = Toxicity in BALB/c mouse assessed as change in creatinine level in blood at 10 mg/kg, ip measured every 12 hrs for 16 days by biochemical automatic analyzer; type: organism-based; details: in vivo, 384 h, time 16 day
DU-145 [27] = experiment: Upregulation of CDK9 expression in human DU-145 cells by Western blot analysis; type: functional, cell-based

Chain of CDK9/cyclin T1 (O60563 whole entry): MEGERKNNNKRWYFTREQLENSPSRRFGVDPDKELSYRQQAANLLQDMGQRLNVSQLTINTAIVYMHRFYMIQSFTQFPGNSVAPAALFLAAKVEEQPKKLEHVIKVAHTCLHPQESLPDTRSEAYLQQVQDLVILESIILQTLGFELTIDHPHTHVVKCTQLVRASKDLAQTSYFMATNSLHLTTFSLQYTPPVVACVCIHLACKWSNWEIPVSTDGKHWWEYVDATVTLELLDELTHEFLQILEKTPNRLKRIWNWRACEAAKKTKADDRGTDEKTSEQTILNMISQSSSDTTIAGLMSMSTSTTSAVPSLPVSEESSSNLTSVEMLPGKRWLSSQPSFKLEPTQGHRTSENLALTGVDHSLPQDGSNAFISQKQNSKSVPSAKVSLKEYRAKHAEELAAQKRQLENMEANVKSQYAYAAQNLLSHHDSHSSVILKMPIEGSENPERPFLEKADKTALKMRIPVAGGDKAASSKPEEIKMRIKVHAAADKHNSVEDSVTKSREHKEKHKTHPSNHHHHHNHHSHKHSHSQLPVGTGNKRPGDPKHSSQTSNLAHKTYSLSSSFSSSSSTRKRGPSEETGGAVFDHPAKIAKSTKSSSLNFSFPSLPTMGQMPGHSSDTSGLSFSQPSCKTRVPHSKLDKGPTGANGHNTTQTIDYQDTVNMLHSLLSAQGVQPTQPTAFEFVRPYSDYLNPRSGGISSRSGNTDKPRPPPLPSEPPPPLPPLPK
Chain of CDK9/cyclin T1 (P50750 whole entry): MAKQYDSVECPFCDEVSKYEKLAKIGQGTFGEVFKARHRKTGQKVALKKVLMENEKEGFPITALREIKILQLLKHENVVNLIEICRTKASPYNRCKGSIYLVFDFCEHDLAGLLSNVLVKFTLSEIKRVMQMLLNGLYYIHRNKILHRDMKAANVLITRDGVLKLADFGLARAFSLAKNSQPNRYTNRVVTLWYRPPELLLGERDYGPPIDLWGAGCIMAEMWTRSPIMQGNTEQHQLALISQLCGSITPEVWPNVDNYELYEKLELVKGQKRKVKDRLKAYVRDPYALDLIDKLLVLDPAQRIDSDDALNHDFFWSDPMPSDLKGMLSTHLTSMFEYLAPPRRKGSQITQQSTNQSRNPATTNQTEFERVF

SMILES: CC(=O)N[C@H](CC(N)=O)C(=O)N[C@@H](C)C(=O)N[C@@H](CC(C)C)C(=O)N[C@@H](CCC(N)=O)C(=O)N[C@H](C(=O)N[C@H](CC(C)C)C(=O)NCC(=O)N[C@@H](Cc1ccccc1)C(=O)N[C@H](CCC(N)=O)C(=O)N[C@@H](CC(C)C)C(=O)N[C@H](C(N)=O)[C@@H](C)O)[C@@H](C)O
IC50 (CDK9/cyclin T1): 4.16 nM
remaining at 0.25 h, 5 µM [2]: 98.2%
remaining at 0.5 h, 5 µM [3]: 96.7%
remaining at 6 h, 5 µM [4]: 87%
Papp A→B at 2 h, 10 µM [5]: 29.8 ×10⁻⁶ cm/s
Drug uptake [6]: Active
Drug uptake [7]: Active
IC50 (DU-145 [1]): 350 nM
IC50 (LNCaP): 410 nM
IC50 (CWR22R): 950 nM
IC50 (PC-3): 720 nM
IC50 (VCaP): 810 nM
IC50 (T47D): 460 nM
IC50 (MCF7): 590 nM
half-life [8]: 4.62 h
Cmax [9]: 2690 ng/mL
Tmax [10]: 0.49 h
half-life [11]: 5.13 h
half-life [12]: 4.87 h
Cmax [13]: 3200 ng/mL
Tmax [14]: 0.41 h
Activity (DU-145 [15]): Active
Activity (DU-145 [16]): Active; Compound Showed More Effect
Activity [17]: Toxic
Activity [18]: Toxic
Activity [19]: Toxic
Activity [20]: Toxic
Activity [21]: Toxic
Activity [22]: Toxic
Activity [23]: Toxic
Activity [24]: Toxic
Activity [25]: Toxic
Activity [26]: Toxic
Activity (DU-145 [27]): Active

SMILES: Nc1n[nH]c(N)c1/N=N/c1ccc(O)cc1
IC50 (DU-145 [1]): 33100 nM

SMILES: CC(=O)N[C@H](CC(C)C)C(=O)N[C@@H](C)C(=O)N[C@@H](CC(C)C)C(=O)N[C@@H](CCC(N)=O)C(=O)N[C@H](C(=O)N[C@H](CC(C)C)C(=O)NCC(=O)N[C@@H](Cc1ccccc1)C(=O)N[C@H](CCC(N)=O)C(=O)N[C@@H](CC(C)C)C(=O)N[C@H](C(N)=O)C(C)C)[C@@H](C)O
IC50 (CDK9/cyclin T1): 17.5 nM
IC50 (DU-145 [1]): 1670 nM

SMILES: CC(=O)N[C@H](CC(N)=O)C(=O)N[C@@H](C)C(=O)N[C@H](C(=O)N[C@@H](CCC(N)=O)C(=O)N[C@H](C(=O)N[C@H](CC(C)C)C(=O)NCC(=O)N[C@@H](Cc1ccccc1)C(=O)N[C@H](CCC(N)=O)C(=O)N[C@@H](CC(C)C)C(=O)N[C@H](C(N)=O)[C@@H](C)O)[C@@H](C)O)C(C)C
IC50 (CDK9/cyclin T1): 23.9 nM
IC50 (DU-145 [1]): 2520 nM

SMILES: CC(=O)N[C@H](CC(C)C)C(=O)N[C@@H](C)C(=O)N[C@@H](CC(C)C)C(=O)N[C@@H](CCC(N)=O)C(=O)N[C@H](C(=O)N[C@H](CC(C)C)C(=O)NCC(=O)N[C@@H](Cc1ccccc1)C(=O)N[C@H](CCC(N)=O)C(=O)N[C@@H](CC(C)C)C(=O)N[C@H](C(N)=O)[C@@H](C)O)[C@@H](C)O
IC50 (CDK9/cyclin T1): 10.5 nM
remaining at 0.25 h, 5 µM [2]: 95.6%
remaining at 0.5 h, 5 µM [3]: 94.2%
Papp A→B at 2 h, 10 µM [5]: 26.8 ×10⁻⁶ cm/s
IC50 (DU-145 [1]): 820 nM
Activity (DU-145 [27]): Active

Next, values leading:

IC50 (CDK9/cyclin T1): > 50 nM
IC50 (DU-145 [1]): > 50000 nM
SMILES: CC(=O)N[C@H](C)C(=O)N[C@@H](C)C(=O)N[C@@H](CC(C)C)C(=O)N[C@@H](C)C(=O)N[C@H](C(=O)N[C@H](CC(C)C)C(=O)NCC(=O)N[C@@H](Cc1ccccc1)C(=O)N[C@H](C)C(=O)N[C@@H](CC(C)C)C(=O)N[C@@H](C)C(N)=O)[C@@H](C)O

IC50 (CDK9/cyclin T1): 87.4 nM
IC50 (DU-145 [1]): 9030 nM
SMILES: CC(=O)N[C@@H](CC(N)=O)C(=O)N[C@@H](C)C(=O)N[C@@H](CC(C)C)C(=O)N[C@@H](CCC(N)=O)C(=O)N[C@H](C(=O)N[C@H](CC(C)C)C(=O)NCC(=O)N[C@@H](Cc1ccccc1)C(=O)N[C@H](CCC(N)=O)C(=O)N[C@@H](CC(C)C)C(=O)N[C@H](C(N)=O)[C@@H](C)O)[C@@H](C)O

IC50 (CDK9/cyclin T1): 36.8 nM
IC50 (DU-145 [1]): 4050 nM
SMILES: CC(=O)N[C@H](CC(N)=O)C(=O)N[C@@H](C)C(=O)N[C@@H](CC(C)C)C(=O)N[C@@H](CCC(N)=O)C(=O)N[C@H](C(=O)N[C@H](CC(C)C)C(=O)NCC(=O)N[C@@H](Cc1ccccc1)C(=O)N[C@H](C)C(=O)N[C@@H](CC(C)C)C(=O)N[C@H](C(N)=O)[C@@H](C)O)[C@@H](C)O

IC50 (CDK9/cyclin T1): > 50 nM
IC50 (DU-145 [1]): > 50000 nM
SMILES: CC(=O)N[C@H](CC(N)=O)C(=O)N[C@H](CCC(N)=O)C(=O)N[C@@H](CC(C)C)C(=O)NCC(=O)N[C@@H](Cc1ccccc1)C(=O)N[C@H](CC(C)C)C(=O)N[C@@H](CC(C)C)C(=O)N[C@@H](C)C(=O)N[C@H](C(=O)N[C@@H](CCC(N)=O)C(=O)N[C@H](C(N)=O)[C@@H](C)O)[C@@H](C)O

From ChEMBL document CHEMBL6153056 (Eur J Med Chem, 2025)
